The values below come from publication PMC11356571, “The Comparative Metabolism of a Novel Hepatocellular Carcinoma Therapeutic Agent, 2,3-Diamino-N-(4-(benzo[d]thiazol-2-yl)phenyl)propanamide, in Human and Animal Hepatocytes” (Metabolites, 2024).

Format in all cases: in vitro ADME
One series addresses T1, CES1c (Homo sapiens, UniProt P23141).
T1 construct: purchased Corning Life Sciences (Woburn, MA, USA)
T1 sequence (P23141 18-566 isoform P23141-3 limits assumed): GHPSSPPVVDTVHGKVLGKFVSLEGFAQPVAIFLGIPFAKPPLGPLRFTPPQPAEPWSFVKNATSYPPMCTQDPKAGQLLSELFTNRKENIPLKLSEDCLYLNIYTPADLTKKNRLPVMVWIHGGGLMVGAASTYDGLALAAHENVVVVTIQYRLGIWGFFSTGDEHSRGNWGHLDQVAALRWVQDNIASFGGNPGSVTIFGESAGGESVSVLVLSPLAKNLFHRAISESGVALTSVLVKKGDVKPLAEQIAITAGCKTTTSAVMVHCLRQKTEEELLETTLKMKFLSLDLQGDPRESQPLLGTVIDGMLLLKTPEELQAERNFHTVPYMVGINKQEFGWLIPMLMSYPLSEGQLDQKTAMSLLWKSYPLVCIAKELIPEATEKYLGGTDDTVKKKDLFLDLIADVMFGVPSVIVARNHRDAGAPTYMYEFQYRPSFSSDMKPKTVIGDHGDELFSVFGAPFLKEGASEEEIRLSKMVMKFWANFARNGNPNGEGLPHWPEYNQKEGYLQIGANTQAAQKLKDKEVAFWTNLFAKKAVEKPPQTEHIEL
As to the kind of experiment: Incubation with human recombinant CES1c. The conditions noted are these: 60 min at 37 °C, ETN101 10 μM or M1 1 μM. On the procedure: (§1) To screen for CES enzymes responsible for the hydrolysis of ETN101 or M1, 50 μL of reaction mixtures containing human cDNA-expressed CES enzymes (CES1b, CES1c, and CES2) at the concentration of 1 mg/mL, 10 μM ETN101, or 1 μM M1 in 0.1 M potassium phosphate buffer were incubated at 37 °C for 0 min or 60 min in triplicate. The reactions were quenched by adding 50 μL of ice-cold acetonitrile containing the internal standard (camptothecin, 10 μg/mL). Following centrifugation at 13,000 rpm for 5 min, a 2 μL aliquot of the supernatant was injected into the LC-MS/MS system. The reliability of the analysis was confirmed by incorporating three different levels of quality control samples at the beginning and end of each analytical batch.
(§2) For enzyme characterization, an Agilent 6460 triple quadrupole mass spectrometer coupled with a 1260 HPLC system (Agilent Technologies, Santa Clara, CA, USA) and a Kinetex Halo® C18 column (2.7 μm, 2.1 × 50 mm, Advanced Material Technology, Wilmington, DE, USA) were used for chromatographic separation. The mobile phases comprised 0.1% (v/v) formic acid in water (mobile phase A) and 0.1% formic acid (v/v) in acetonitrile (mobile phase B). […] ETN101, M1, and M2 were detected via MRM using ESI in the positive mode. […]

The target of the next series is T2, CES2 (Homo sapiens, UniProt O00748).
T2 construct: purchased Corning Life Sciences (Woburn, MA, USA)
T2 sequence (O00748 27-559): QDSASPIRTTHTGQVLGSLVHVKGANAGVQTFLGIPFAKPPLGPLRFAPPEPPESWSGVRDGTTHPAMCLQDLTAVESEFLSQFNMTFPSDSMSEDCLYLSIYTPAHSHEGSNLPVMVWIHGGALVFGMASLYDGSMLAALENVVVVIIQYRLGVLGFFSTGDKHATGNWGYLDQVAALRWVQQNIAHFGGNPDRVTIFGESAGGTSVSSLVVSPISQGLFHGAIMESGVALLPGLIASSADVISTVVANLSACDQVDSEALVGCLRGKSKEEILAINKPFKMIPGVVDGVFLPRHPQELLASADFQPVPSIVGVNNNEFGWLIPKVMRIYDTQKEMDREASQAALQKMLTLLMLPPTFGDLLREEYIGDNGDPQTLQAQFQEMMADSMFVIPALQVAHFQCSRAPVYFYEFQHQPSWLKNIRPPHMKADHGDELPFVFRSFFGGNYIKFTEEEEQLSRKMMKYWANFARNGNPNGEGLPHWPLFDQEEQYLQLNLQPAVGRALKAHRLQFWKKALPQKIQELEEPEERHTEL
Description: Incubation with human recombinant CES2. The conditions noted are these: CES2, 60 min at 37 °C; ETN101 10 μM or M1 1 μM. As to the method:
as §1, §2

The subject of a further series is dog hepatocytes. As to the kind of experiment: Metabolite characterization in dog hepatocytes. The conditions noted are these: dog hepatocyte 1 h incubates of ETN101; ND:<1.2E+05 peak area. As to the method:
We mixed 60 μL aliquots of 40 μM ETN101 in incubation medium and an equal volume of human, mouse, rat, dog, or monkey hepatocyte suspension in 96-well plates and incubated for 0 or 1 h in a CO2 incubator at 37 °C. The reactions were quenched by adding 120 µL of ice-cold acetonitrile to each well, and the cell suspension was sonicated for 5 min at 4 °C. Subsequently, centrifugation was carried out at 15,000× g for 10 min at 4 °C. Next, the supernatants were evaporated to dryness using a vacuum concentrator, and residues were re-dissolved in 70 μL of 30% acetonitrile. Each sample (5 μL aliquots) was analyzed using LC–HRMS system.
For metabolite characterization, a Vanquish HPLC system (Thermo Fisher Scientific, San José, CA, USA) coupled with a Q-Exactive Orbitrap mass spectrometer (Thermo Fisher Scientific Inc., Waltham, MA, USA) was used at Core Research Support Center for Natural Products and Medical Materials at Yeungnam University. […] The eluent from the column was directly injected into the mass spectrometer using a heated electrospray ionization (HESI) source in positive ionization mode. […] The spray voltage was 3.0 kV and the capillary temperature was 320 °C. Full scan MS^1 with a data-dependent MS^2 acquisition mode was applied to obtain MS^1 scan data ranging from m/z 80 to 900, at a resolution of 70,000, whereas data-dependent MS^2 spectra were acquired for the five most abundant peaks per cycle at a resolution of 35,000. The parallel reaction monitoring (PRM) mode was used to obtain the MS^2 spectra of putative metabolites detected at low peak intensities in the data-dependent MS^2 acquisition mode. Data were collected and interpreted using Thermo Scientific Xcalibur™ Software (Thermo Fisher Scientific).

Turning to `NCC(N)C(=O)Nc1ccc(-c2nc3ccccc3s2)cc1` (stereo not drawn) [ETN101, 2,3-diamino-N-(4-(benzo[d]thiazol-2-yl)phenyl)propanamide], the Percentage remaining at CES1c is 107.3%; at CES2 it was 113.4%. In addition, the “Relative peak area (%)” value in the series on dog hepatocytes is recorded as 39.5%.

Turning to `Nc1ccc(-c2nc3ccccc3s2)cc1` [M1, 2-(4-aminophenyl)benzothiazole], the Percentage remaining on CES1c amounted to 122.7%; at CES2 it was 91.7%. Besides, the “Relative peak area (%)” value with dog hepatocytes turned out to be 55.9%.
